Results taken from US10538554B2, “Peptides and uses therefor as antiviral agents” (priority 2015, dated 2020).
Bridge positions count the residues as written; N and C are the ends. Square brackets hold non-standard residues; d marks the D form. Peptide text beside a SMILES is read from it.

Experiments:
[1] = tested on: H1N1 A1/Malaysia/302/1954; settings: A1/Malaysia/302/1954, 48 h; for % inhibition H1N1: 500 μM; for % Inhibition: 1 μM
H3N8 A/Miami/2/63 = settings: A/Miami/2/63, 48 h, 500 μM
H9N2 A/Iran/16/2000 = settings: 48 h, 500 μM

Row | Structure (SMILES) | % inhibition H3N8 (H3N8 A/Miami/2/63) | % Inhibition [1] | also measured
1 | CC[C@@H](C)[C@H]1NC(=O)[C@@H](Cc2ccccc2)NC(=O)[C@@H](CCCNC(=N)N)NC(=O)[C@@H](CO)NC(=O)[C@@H](CC(N)=O)NC(=O)[C@@H]([C@H](C)O)NC(=O)[C@H](NC(=O)[C@@H](CCCCN)NC(=O)[C@@H](CCCCN)NC(=O)[C@@H](CCCNC(=N)N)NC(=O)[C@H](N)CCCNC(=N)N)CSSC[C@H](C(=O)O)NC(=O)[C@@H](CC(N)=O)NC1=O [PSP II A12, H-rrkkctnsrfinc-OH] (H-[dR][dR][dK][dK][dC][dT][dN][dS][dR][dF][dI][dN][dC]-OH; disulfide 5-13) | 70.6% | – | % inhibition H1N1 [1]: 53.8%
2 | CC[C@@H](C)[C@H]1NC(=O)[C@@H](Cc2ccccc2)NC(=O)[C@@H](CCCNC(=N)N)NC(=O)[C@@H](CO)NC(=O)[C@@H](C)NC(=O)[C@@H]([C@H](C)O)NC(=O)[C@H](NC(=O)[C@@H](CCCCN)NC(=O)[C@@H](CCCCN)NC(=O)[C@@H](CCCNC(=N)N)NC(=O)[C@H](N)CCCNC(=N)N)CSSC[C@H](C(=O)O)NC(=O)[C@@H](CC(N)=O)NC1=O [PSP II A1, H-rrkkctasrfinc-OH] (H-[dR][dR][dK][dK][dC][dT][dA][dS][dR][dF][dI][dN][dC]-OH; disulfide 5-13) | 25.9% | – | % inhibition H9N2 (H9N2 A/Iran/16/2000): 40%
3 | CSCC[C@H]1NC(=O)[C@@H](Cc2ccccc2)NC(=O)[C@@H](CCCNC(=N)N)NC(=O)[C@@H](CO)NC(=O)[C@@H](CCCCN)NC(=O)[C@@H]([C@H](C)O)NC(=O)[C@H](N)CSSC[C@H](C(=O)O)NC(=O)[C@@H](CC(N)=O)NC1=O [PSP 11, H-ctksrfmnc-OH] (H-[dC][dT][dK][dS][dR][dF][dM][dN][dC]-OH; disulfide 1-9) | 67% | – | % inhibition H1N1 [1]: 5.8%
4 | CC[C@@H](C)[C@H]1NC(=O)[C@@H](Cc2ccccc2)NC(=O)[C@@H](CCCNC(=N)N)NC(=O)[C@@H](CO)NC(=O)[C@@H](CS)NC(=O)[C@@H]([C@H](C)O)NC(=O)[C@H](NC(=O)[C@@H](CCCCN)NC(=O)[C@@H](CCCCN)NC(=O)[C@@H](CCCNC(=N)N)NC(=O)[C@H](N)CCCNC(=N)N)CSSC[C@H](C(=O)O)NC(=O)[C@@H](CC(N)=O)NC1=O [PSP II A2, H-rrkkctcsrfinc-OH] (H-[dR][dR][dK][dK][dC][dT][dC][dS][dR][dF][dI][dN][dC]-OH; disulfide 5-13) | 44.4% | – | % inhibition H1N1 [1]: 1.7%
5 | CC[C@@H](C)[C@H]1NC(=O)[C@@H](CCC(N)=O)NC(=O)[C@@H]([C@H](C)O)NC(=O)[C@@H](Cc2ccccc2)NC(=O)[C@@H](Cc2c[nH]c3ccccc23)NC(=O)[C@@H](Cc2c[nH]c3ccccc23)NC(=O)[C@H](NC(=O)[C@H](CCCCN)NC(=O)[C@H](CCCCN)NC(=O)[C@H](CCCNC(=N)N)NC(=O)[C@@H](N)CCCNC(=N)N)CSSC[C@H](C(=O)O)NC(=O)[C@@H](C)NC1=O [PSP VII A14, H-RRKKcwwftqiac-OH] (H-RRKK[dC][dW][dW][dF][dT][dQ][dI][dA][dC]-OH; disulfide 5-13) | – | 21.9% | –
6 | CC[C@@H](C)[C@H]1NC(=O)[C@@H]([C@H](C)O)NC(=O)[C@@H](Cc2ccccc2)NC(=O)[C@@H](Cc2c[nH]c3ccccc23)NC(=O)[C@@H](Cc2c[nH]c3ccccc23)NC(=O)[C@H](NC(=O)[C@H](CCCCN)NC(=O)[C@H](CCCCN)NC(=O)[C@H](CCCNC(=N)N)NC(=O)[C@@H](N)CCCNC(=N)N)CSSC[C@H](C(=O)O)NC(=O)[C@@H](C)NC(=O)[C@@H]([C@H](C)CC)NC1=O [PSP VII A8, H-RRKKcwwftiiac-OH] (H-RRKK[dC][dW][dW][dF][dT][dI][dI][dA][dC]-OH; disulfide 5-13) | – | 84.8% | –
7 | CC[C@@H](C)[C@H]1NC(=O)[C@@H](CS)NC(=O)[C@@H]([C@H](C)O)NC(=O)[C@@H](Cc2ccccc2)NC(=O)[C@@H](Cc2c[nH]c3ccccc23)NC(=O)[C@@H](Cc2c[nH]c3ccccc23)NC(=O)[C@H](NC(=O)[C@H](CCCCN)NC(=O)[C@H](CCCCN)NC(=O)[C@H](CCCNC(=N)N)NC(=O)[C@@H](N)CCCNC(=N)N)CSSC[C@H](C(=O)O)NC(=O)[C@@H](C)NC1=O [PSP VII A2, H-RRKKcwwftciac-OH] (H-RRKK[dC][dW][dW][dF][dT][dC][dI][dA][dC]-OH; disulfide 5-13) | – | 11.9% | –
8 | CC[C@@H](C)[C@H]1NC(=O)[C@@H](CC(N)=O)NC(=O)[C@@H]([C@H](C)O)NC(=O)[C@@H](Cc2ccccc2)NC(=O)[C@@H](Cc2c[nH]c3ccccc23)NC(=O)[C@@H](Cc2c[nH]c3ccccc23)NC(=O)[C@H](NC(=O)[C@H](CCCCN)NC(=O)[C@H](CCCCN)NC(=O)[C@H](CCCNC(=N)N)NC(=O)[C@@H](N)CCCNC(=N)N)CSSC[C@H](C(=O)O)NC(=O)[C@@H](C)NC1=O [PSP VII A12, H-RRKKcwwftniac-OH] (H-RRKK[dC][dW][dW][dF][dT][dN][dI][dA][dC]-OH; disulfide 5-13) | – | 55.2% | –
9 | CC[C@@H](C)[C@H]1NC(=O)[C@H]2CCCN2C(=O)[C@@H]([C@H](C)O)NC(=O)[C@@H](Cc2ccccc2)NC(=O)[C@@H](Cc2c[nH]c3ccccc23)NC(=O)[C@@H](Cc2c[nH]c3ccccc23)NC(=O)[C@H](NC(=O)[C@H](CCCCN)NC(=O)[C@H](CCCCN)NC(=O)[C@H](CCCNC(=N)N)NC(=O)[C@@H](N)CCCNC(=N)N)CSSC[C@H](C(=O)O)NC(=O)[C@@H](C)NC1=O [PSP VII A13, H-RRKKcwwftpiac-OH] (H-RRKK[dC][dW][dW][dF][dT][dP][dI][dA][dC]-OH; disulfide 5-13) | – | 41.9% | –
10 | CC[C@@H](C)[C@H]1NC(=O)[C@@H](CCCCN)NC(=O)[C@@H]([C@H](C)O)NC(=O)[C@@H](Cc2ccccc2)NC(=O)[C@@H](Cc2c[nH]c3ccccc23)NC(=O)[C@@H](Cc2c[nH]c3ccccc23)NC(=O)[C@H](NC(=O)[C@H](CCCCN)NC(=O)[C@H](CCCCN)NC(=O)[C@H](CCCNC(=N)N)NC(=O)[C@@H](N)CCCNC(=N)N)CSSC[C@H](C(=O)O)NC(=O)[C@@H](C)NC1=O [PSP VII A9, H-RRKKcwwftkiac-OH] (H-RRKK[dC][dW][dW][dF][dT][dK][dI][dA][dC]-OH; disulfide 5-13) | – | 17.4% | –
11 | CC[C@@H](C)[C@H]1NC(=O)[C@@H](CCCNC(=N)N)NC(=O)[C@@H]([C@H](C)O)NC(=O)[C@@H](Cc2ccccc2)NC(=O)[C@@H](Cc2c[nH]c3ccccc23)NC(=O)[C@@H](Cc2c[nH]c3ccccc23)NC(=O)[C@H](NC(=O)[C@H](CCCCN)NC(=O)[C@H](CCCCN)NC(=O)[C@H](CCCNC(=N)N)NC(=O)[C@@H](N)CCCNC(=N)N)CSSC[C@H](C(=O)O)NC(=O)[C@@H](C)NC1=O [PSP VII A15, H-RRKKcwwftriac-OH] (H-RRKK[dC][dW][dW][dF][dT][dR][dI][dA][dC]-OH; disulfide 5-13) | – | 39.1% | –
12 | CC[C@@H](C)[C@H]1NC(=O)[C@@H](C)NC(=O)[C@@H]([C@H](C)O)NC(=O)[C@@H](Cc2ccccc2)NC(=O)[C@@H](Cc2c[nH]c3ccccc23)NC(=O)[C@@H](Cc2c[nH]c3ccccc23)NC(=O)[C@H](NC(=O)[C@H](CCCCN)NC(=O)[C@H](CCCCN)NC(=O)[C@H](CCCNC(=N)N)NC(=O)[C@@H](N)CCCNC(=N)N)CSSC[C@H](C(=O)O)NC(=O)[C@@H](C)NC1=O [PSP VII A1, H-RRKKcwwftaiac-OH] (H-RRKK[dC][dW][dW][dF][dT][dA][dI][dA][dC]-OH; disulfide 5-13) | – | 25.2% | –
